According to patent US12441710B2, “Substituted piperidino compounds and related methods of treatment” (Alkermes, Inc., priority 2020, dated 2025):
pEC50: −log10 of the molar value.

Columns and labels:
human hepatocytes = test: Hepatocytes stability assay (human hepatocytes); type: in vitro ADME; details: hepatic clearance divided by liver blood flow, fu assumed unity
Procedure: (§1) In vitro metabolic stability was assessed using cryopreserved hepatocytes from male Sprague Dawley rats and a pool of 50 mixed gender humans (BioIVT, Baltimore, MD). The incubation mixtures were prepared by mixing 250 μL of pre-warmed KHB (Krebs-Henseleit buffer) containing 2×10^6 cell/mL of hepatocytes with 250 μL of pre-warmed KHB buffer containing 2 μM of test compounds in a 48-well plate, giving a final concentration of 1 μM test compound (0.1% DMSO) and 1×10^6 cell/mL of hepatocytes. The reaction mixture was incubated at 37 degrees C. A 50 μL aliquot of incubation mixture was taken at time points (0, 15, 30, 60, 120 and 240 minutes) and transferred into a 96-well plate containing 300 μL ice-cold acetonitrile (containing 30 ng/mL of labetalol and 10 ng/mL of Naltrexone-d3 as internal standards) and immediately placed in ice to terminate the reaction. Samples were centrifuged, and supernatants were transferred into 96-well plates for liquid chromatography with tandem mass spectrometry (LC-MS/MS) analysis to monitor the depletion of the test compound. Data was calculated as percent remaining by assuming zero-minute time point peak area ratio (analyte/IS) as 100% and dividing remaining time point peak area ratios by zero-minute time point peak area ratio. Data were fitted to a first-order decay model to determine half-life. From a plot of log (ln) peak area against time, the slope of the line was determined. Subsequently, half-life (T1/2) and intrinsic clearance (CLint) were calculated using the equations below: • Elimination rate constant (k)=(−slope) • Half-life (T1/2) min=0.693/k • Intrinsic Clearance (CLint) (mL/min/million cells)=(V×0.693)/T1/2 • V=incubation volume mL/number of cells The in vitro T1/2 was converted to in vitro intrinsic clearance (CLint,hep) in units of mL/min/kg using the formula shown below: The in vitro intrinsic clearance (CLint,hep) was scaled to in vivo hepatic clearance (CL,hep) using the following equation which was adapted from a well-stirred model. [formula] where Q is the liver blood flow and fu is the fraction unbound (assumed to be unity in this case). All parameters used in the calculation are shown below (Table 4). The extraction ratio (ER) was calculated by dividing the hepatic clearance of a compound to the liver blood flow. The data reported in Table 5 were obtained according to the human hepatocytes stability assay described above.

[1] = Hepatocytes stability assay (human hepatocytes); type: in vitro ADME; details: both sexes, cryopreserved hepatocytes, 1 μM test compound, 1×10^6 cell/mL, read-out: CLint (μL/min/million cells)
Procedure: as §1

MDR1 = test: MDCK-MDR1 permeability assay; type: in vitro ADME; details: dog, 3 μM test compound; for efflux ratio at 2 h, 3 μM: Papp (B→A) divided by Papp (A→B), read-out: Efflux ratio (ER); for Papp A→B at 2 h, 3 μM: apical to basolateral, 2 hours at 37 degrees C
Procedure: The bidirectional permeability (Apical to Basal and Basal to Apical directions) of test compounds in MDCK-MDR1 cells were evaluated using MDCK-MDR1 cells seeded in Solvo PreadyPort™ MDCK 96-well plate. Once the plate was received from ReadyCell (Barcelona, Spain), it was treated as per PreadyPort™ user's manual.
For the Apical to Basolateral (A→B) permeability, 80 μL of test compound (3 μM) co-dosed with LY (Lucifer Yellow) (100 μM) in HBSS (Hank's Balanced Salt Solution) assay buffer was added to the donor side (A) while 250 μL of HBSS buffer was added to the receiver side (B). For the Basolateral to Apical (B→A) permeability, 255 μL of test compound (3 μM) in HBSS assay buffer was added to the donor side (B) while 75 μL of HBSS buffer containing LY (100 μM) was added to the receiver side (A).
The plate was placed in an incubator set at 37 degrees C. After 10 minutes of pre-warming, 5 μL aliquot was taken from donor compartment and set aside as the dosing solution. The MDCK-MDR1 incubation plate was placed back into the incubator for 2 hours of incubation at 37 degrees C. After 2 hours of incubation, 25 μL and 5 μL aliquots were removed from the receiver and donor sides, respectively. To the 5 μL aliquots taken from the donor sides (before and after a 2-hour incubation) were diluted with 20 μL of the HBSS buffer. All samples were mixed with 150 μL with acetonitrile containing internal standard (IS) and 200 μL water, and analyzed by LC-MS/MS.
The apparent permeability (Papp) was calculated using the following formula: Papp=dQ/dt×1/A×C0 where: • dQ/dt: amount of translocated material over incubation time (nmol/s) • A: area of insert (0.14 cm^2 for PreadyPort™ MDR1-96) • C0: initial concentration of product applied in apical (A→B) or basal (B→A) compartment (nmol/mL).
The efflux ratio (ER) was measured by dividing the Papp (basolateral to apical direction) by Papp (apical to basolateral direction). It is a general measure of the involvement of active processes. An ER >2 is considered positive for active transport.
The data reported in Table 3 were obtained according to the MDCK-MDR1 permeability assay described above.

[2] = molecular target: T1, human orexin-2 receptor (OX2R) (Homo sapiens, UniProt O43614); test: Human OX2R IP1 assay; type: cell-based; details: T-Rex CHO cells stably overexpressing human OX2R; IP1 accumulation, 1 hr at 37 degrees C
T1 construct: expressed in transfected cells
T1 sequence (O43614 1-444): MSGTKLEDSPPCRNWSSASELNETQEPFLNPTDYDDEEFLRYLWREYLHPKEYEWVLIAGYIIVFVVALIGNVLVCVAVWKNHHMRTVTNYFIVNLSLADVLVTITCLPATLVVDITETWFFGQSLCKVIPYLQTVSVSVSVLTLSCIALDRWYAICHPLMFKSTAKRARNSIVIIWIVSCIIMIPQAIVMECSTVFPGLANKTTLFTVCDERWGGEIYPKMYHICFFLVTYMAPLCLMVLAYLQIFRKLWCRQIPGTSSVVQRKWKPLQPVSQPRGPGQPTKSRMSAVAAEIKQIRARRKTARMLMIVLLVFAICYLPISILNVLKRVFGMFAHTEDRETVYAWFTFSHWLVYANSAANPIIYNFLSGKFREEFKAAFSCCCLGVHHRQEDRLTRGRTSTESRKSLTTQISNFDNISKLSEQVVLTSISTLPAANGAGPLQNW
Procedure: T-Rex CHO cells stably overexpressing the human orexin-2 receptor (OX2R) were induced overnight with 1 μg/mL of doxycycline in a T225 flask. 24 hours post induction, cells were lifted with accutase and plated into a 384-well proxy plate at 30,000 cells/well. Cells were then treated with different test compounds in 1× stimulation buffer containing 10 mM Hepes, 1 mM CaCl2), 0.5 mM MgCl2, 4.2 mM KCl, 146 mM NaCl, 5.5 mM glucose, and 50 mM LiCl, pH 7.4, for 1 hr at 37 degrees C. Following incubation, the reaction was terminated by the addition of detection mix, which is composed of IP1-d2 and anti-IP1-cryptate diluted in lysis buffer as well as 1× stimulation buffer. The plates were allowed to incubate for 1 hour at room temperature and were then read in the EnVision® multimode plate reader, measuring inositol phosphate levels.
Cisbio IP1 is a cell-based functional assay quantifying the accumulation of inositol monophosphate (IP), a metabolite released as a result of orexin 2 receptor activation through the phospholipase C-Gq signaling pathway. This is a competitive immunoassay in which the IP1 produced by the cells upon receptor activation competes with the IP1 analog coupled to the d2 fluorophore (acceptor) for binding to an anti-IP1 monoclonal antibody labeled with Eu cryptate (donor). The measured HTRF-FRET based signal is inversely proportional to the IP1 concentration produced.
The EC50 values reported in Table 2 were obtained according to the human OX2R IP1 assay described above. Data are the mean EC50 values±S.E.M. The compound methyl (2R,3S)-3-((methylsulfonyl)amino)-2-(((cis-4-phenylcyclohexyl)oxy)methyl)-piperidine-1-carboxylate (sometimes referred to herein as Reference Compound A) is a reference compound which is disclosed in Example 5 of PCT publication no. WO2017/135306.

SMILES	Extraction Ratio (ER) (human hepatocytes)	hepatocyte CLint at 1 μM [1] [µL/min/1e6 cells]	efflux ratio at 2 h, 3 μM (MDR1)	Papp A→B at 2 h, 3 μM (MDR1) [×10⁻⁶ cm/s]	pEC50 [2]
CS(=O)(=O)N[C@H]1CCN(c2ccccn2)CC1COC1CCC(c2ccccn2)CC1 (some centres unmarked) [Compound 2]	0.89	53			
CS(=O)(=O)N[C@H]1CCN(c2ccccn2)CC1COC1CCC(c2cccnc2)CC1 (some centres unmarked) [Compound 3]	0.88	50	24	1.7	
CS(=O)(=O)N[C@H]1CCN(c2ccccn2)CC1COC1CCC(c2ccncc2)CC1 (some centres unmarked) [Compound 4]	0.89	57	14	1.2	
CS(=O)(=O)N[C@H]1CCN(c2ccccn2)CC1COC1CCC(c2ccccc2F)CC1 (some centres unmarked) [Compound 5]	0.88	49	> 7.2	< 0.9	
CS(=O)(=O)N[C@H]1CCN(c2ccccn2)CC1COC1CCC(c2ccc(F)cc2)CC1 (some centres unmarked) [Compound 7]	0.85	39	> 4.3	< 1.2	
CS(=O)(=O)N[C@H]1CCN(c2ccccn2)CC1COC1CCC(c2ccncn2)CC1 (some centres unmarked) [Compound 8]	0.82	30	15	1.8	
CS(=O)(=O)N[C@H]1CCN(c2ccccn2)CC1COC1CCC(c2cnccn2)CC1 (some centres unmarked) [Compound 9]	0.87	45	25	0.97	
CS(=O)(=O)N[C@H]1CCN(c2ccccn2)CC1COC1CCC(c2ccccc2)CC1 (some centres unmarked) [Compound 10]	0.92	73	1.4	5.6	
CS(=O)(=O)N[C@H]1CCN(c2ccccn2)CC1COC1CCC(c2ncccn2)CC1 (some centres unmarked) [Compound 11]	0.76	21	11	1.6	
CS(=O)(=O)N[C@H]1CCN(c2ccccn2)CC1COC1CCC(c2cncnc2)CC1 (some centres unmarked) [Compound 12]	0.84	35	33	1	
CS(=O)(=O)N[C@H]1CCN(c2ccccn2)CC1COC1CCC(c2ccnnc2)CC1 (some centres unmarked) [Compound 13]	0.71	16	18	0.67	
CS(=O)(=O)N[C@H]1CCN(c2ccccn2)CC1COC1CCC(c2cccnn2)CC1 (some centres unmarked) [Compound 14]	0.77	22	> 56	< 0.12	
Cc1ccccc1C1CCC(OCC2CN(c3ccccn3)CC[C@@H]2NS(C)(=O)=O)CC1 (some centres unmarked) [Compound 15]	0.91	64	> 6.9	< 0.33	
Cc1cccc(C2CCC(OCC3CN(c4ccccn4)CC[C@@H]3NS(C)(=O)=O)CC2)c1 (some centres unmarked) [Compound 16]	0.87	43	> 7.9	< 0.9	
CS(=O)(=O)N[C@H]1CCN(c2ccccn2)C[C@H]1CO[C@H]1CC[C@@H](c2ccc(O)cc2)CC1 [Compound 32]					> 7.00
CS(=O)(=O)N[C@H]1CCN(c2ccccn2)C[C@H]1CO[C@H]1CC[C@@H](c2cccc(C(F)(F)F)c2)CC1 [Compound 33]					6.00 to 7.00
CS(=O)(=O)N[C@H]1CCN(c2ccccn2)C[C@H]1CO[C@H]1CC[C@@H](c2cccc(C#N)c2)CC1 [Compound 35]					> 7.00
CS(=O)(=O)N[C@H]1CCN(Cc2ccccc2)C[C@H]1CO[C@H]1CC[C@@H](c2ccccc2)CC1 [Compound 36]					< 6.00
CS(=O)(=O)N[C@H]1CCN(Cc2ccccn2)C[C@H]1CO[C@H]1CC[C@@H](c2ccccc2)CC1 [Compound 39]					< 6.00
CS(=O)(=O)N[C@H]1CCN(Cc2cccnc2)C[C@H]1CO[C@H]1CC[C@@H](c2ccccc2)CC1 [Compound 40]					< 6.00
CS(=O)(=O)N[C@H]1CCN(Cc2ccncc2)C[C@H]1CO[C@H]1CC[C@@H](c2ccccc2)CC1 [Compound 41]					< 6.00
CS(=O)(=O)N[C@H]1CCN(c2cccc3ccnn23)C[C@H]1CO[C@H]1CC[C@@H](c2ccccc2)CC1 [Compound 42]					< 6.00
CS(=O)(=O)N[C@H]1CCN(c2cccc3ncnn23)C[C@H]1CO[C@H]1CC[C@@H](c2ccccc2)CC1 [Compound 43]					< 6.00
CS(=O)(=O)N[C@H]1CCN(c2nccc3ncnn23)C[C@H]1CO[C@H]1CC[C@@H](c2ccccc2)CC1 [Compound 44]					6.00 to 7.00
CS(=O)(=O)N[C@H]1CCN(c2nccc3ocnc23)C[C@H]1CO[C@H]1CC[C@@H](c2ccccc2)CC1 [Compound 45]					> 7.00
